Laboratory results taken from patent US9872495B2, “Peptoid oligomers, pharmaceutical compositions and methods of using the same” (priority 2009, dated 2018).
In brackets after ≈: the same amount, converted by molar mass. Where two headings read alike, the source gives them in different places. Numbered stars: 1 amine (or outer) side, 2 acyl side, 3 side chain; on linkers, the order of the positions; unused ones are H or OH. Square brackets hold non-standard residues; d marks the D form. Peptide text beside a SMILES is read from it. X1 = O=C(CN(CC(c1ccccc1)c1ccccc1)[*:1])[*:2]; Gly(N-(CH2)6NH2) = NCCCCCCNCC(=O)O; Gly(N(CH2)3NH2) = NCCCNCC(=O)O; NhArg = N=C(N)NCCCCNCC(=O)O; N(iPr)Gly = CC(C)NCC(=O)O; Nphe = O=C(O)CNCc1ccccc1; Nleu = CC(C)CNCC(=O)O; Nlys = NCCCCNCC(=O)O

Assays:
Format in all cases: cell-based
[1] = tested on: Bacillus subtilis ATCC 6633
Method: (§1) Antimicrobial activity was tested against the gram-negative strain Escherichia coli ATCC 25922, and […] strains Staphylococcus aureus ATCC 25923, and Bacillus subtilis ATCC 6633, according to the guidelines given in the document […]-A7 of the CLSI (Clinical and Laboratory Standards Institute; Clinical and Laboratory Standards Institute. Methods for Dilution Antimicrobial Susceptibility Tests for Bacteria That Grow Aerobically-Seventh Edition: Approved Standard CLSI document […]-A7. CLSI, Wayne, USA, 2006). This reference is incorporated herein in its entirety. Hemolytic activity was tested against fresh human erythrocytes.

[2] = tested on: Escherichia coli ATCC 25922
Method: as §1

[3] = tested on: Staphylococcus aureus ATCC 25923
Method: as §1

[4] = tested on: fresh human erythrocytes; test: Hemolytic activity
Method: Typically, toxicity is evaluated by hemolytic concentration50 (HC50), which measures the concentration of antimicrobial agents at which 50% of the erythrocytes in the culture are lysed. Significant hemolysis, as evaluated by HC50, was detectable only for peptide gramicidin S (40 μg/mL). […] In order to test hemolytic activity of peptoid oligomers further, more stringent parameters were used. Instead of HC50, hemolytic concentration10 (HC10) was used to evaluate hemolytic activity of peptoids used in this study. HC10 represents the concentration of antimicrobial agents where 10% of erythrocytes are lysed. HC10 values were detectable for only four peptoid oligomers. […] Antimicrobial activity was tested against the gram-negative strain Escherichia coli ATCC 25922, and […] strains Staphylococcus aureus ATCC 25923, and Bacillus subtilis ATCC 6633, according to the guidelines given in the document […]-A7 of the CLSI (Clinical and Laboratory Standards Institute; Clinical and Laboratory Standards Institute. Methods for Dilution Antimicrobial Susceptibility Tests for Bacteria That Grow Aerobically-Seventh Edition: Approved Standard CLSI document […]-A7. CLSI, Wayne, USA, 2006). This reference is incorporated herein in its entirety. Hemolytic activity was tested against fresh human erythrocytes.

| SMILES | MIC B. sub ([1]; ATCC 6633) [µg/mL] | MIC E. coli ([2]; ATCC 25922) [µg/mL] | MIC S. aureus ([3]; ATCC 25923) [µg/mL] | HC10 (concentration where 10% hemolysis is observed) ([4]; red cells of human) [µg/mL] | HC50 (concentration where 50% hemolysis is observed) ([4]; red cells of human) [µg/mL] | MIC B. sub ([1]; B. subtilis ATCC 6633) [µg/mL] | MIC E. coli ([2]; E. coli ATCC 25922) [µg/mL] | MIC S. aureus ([3]; S. aureus ATCC 25923) [µg/mL] | HC10 (concentration where 10% hemolysis is observed) ([4]; fresh human erythrocytes) [µg/mL] | HC50 (concentration where 50% hemolysis is observed) ([4]; fresh human erythrocytes) [µg/mL] |
| --- | --- | --- | --- | --- | --- | --- | --- | --- | --- | --- |
| CC(=O)N(CCCCNC(=N)N)CC(=O)N(CC(=O)N(CCCCNC(=N)N)CC(=O)N(CC(=O)N(CCCCNC(=N)N)CC(=O)N(CC(N)=O)Cc1ccccc1)Cc1ccccc1)Cc1ccccc1 [Compound 2, Ac(NgbNpm)3] (Ac-[NhArg][Nphe][NhArg][Nphe][NhArg][Nphe]-NH2) | 62.5 (≈ 61.8 µM) | 250 (≈ 247 µM) | 125 (≈ 124 µM) | >250 | >250 |  |  |  |  |  |
| CC(=O)N(CCCCCCN)CC(=O)N(CC(=O)N(CCCCCCN)CC(=O)N(CC(=O)N(CCCCCCN)CC(=O)N(CC(N)=O)Cc1ccccc1)Cc1ccccc1)Cc1ccccc1 [Compound 3, Ac(NahNpm)3] (Ac-[Gly(N-(CH2)6NH2)][Nphe][Gly(N-(CH2)6NH2)][Nphe][Gly(N-(CH2)6NH2)][Nphe]-NH2) | >500 | >500 | >500 | >250 | >250 |  |  |  |  |  |
| CC(=O)N(CCCN)CC(=O)N(CC(=O)N(CCCN)CC(=O)N(CC(=O)N(CCCN)CC(=O)N(CC(N)=O)Cc1ccc2ccccc2c1)Cc1ccc2ccccc2c1)Cc1ccc2ccccc2c1 [Compound 5, Ac(NapNnm)3] | 2 (≈ 2.01 µM) | 62.5 (≈ 62.9 µM) | 125 (≈ 126 µM) | >250 | >250 |  |  |  |  |  |
| CC(=O)N(CCCN)CC(=O)N(CC(=O)N(CCCN)CC(=O)N(CC(=O)N(CCCN)CC(=O)N(CCCN)CC(N)=O)Cc1ccccc1)Cc1ccccc1 [Compound 6, Ac(NapNpm)2Nap2] (Ac-[Gly(N(CH2)3NH2)][Nphe][Gly(N(CH2)3NH2)][Nphe][Gly(N(CH2)3NH2)][Gly(N(CH2)3NH2)]-NH2) | >500 | >500 | >500 | >250 | >250 |  |  |  |  |  |
| CC(=O)N(CCCN)CC(=O)N(CC(=O)N(CCCN)CC(=O)N(CC(=O)N(CCCN)CC(=O)N(CC(N)=O)Cc1ccccc1)Cc1ccccc1)Cc1ccccc1 [Compound 7, Ac(NapNpm)3] (Ac-[Gly(N(CH2)3NH2)][Nphe][Gly(N(CH2)3NH2)][Nphe][Gly(N(CH2)3NH2)][Nphe]-NH2) | 125 (≈ 148 µM) | 125 (≈ 148 µM) | 250 (≈ 297 µM) | >250 | >250 |  |  |  |  |  |
| CC(=O)N(CCCN)CC(=O)N(CC(=O)N(CCCN)CC(=O)N(CC(=O)N(CCCN)CC(=O)N(CC(=O)N(CCCN)CC(=O)N(CC(N)=O)Cc1ccccc1)Cc1ccccc1)Cc1ccccc1)Cc1ccccc1 [Compound 8, Ac(NapNpm)4] (Ac-[Gly(N(CH2)3NH2)][Nphe][Gly(N(CH2)3NH2)][Nphe][Gly(N(CH2)3NH2)][Nphe][Gly(N(CH2)3NH2)][Nphe]-NH2) | 31.3 (≈ 28.3 µM) | 250 (≈ 226 µM) | 250 (≈ 226 µM) | >250 | >250 |  |  |  |  |  |
| CC(=O)N(CCCN)CC(=O)N(CC(=O)N(CCCN)CC(=O)N(CC(=O)N(CCCN)CC(=O)N(CC(=O)N(CCCN)CC(=O)N(CC(=O)N(CCCN)CC(=O)N(CC(N)=O)Cc1ccccc1)Cc1ccccc1)Cc1ccccc1)Cc1ccccc1)Cc1ccccc1 [Compound 9, Ac(NapNpm)5] (Ac-[Gly(N(CH2)3NH2)][Nphe][Gly(N(CH2)3NH2)][Nphe][Gly(N(CH2)3NH2)][Nphe][Gly(N(CH2)3NH2)][Nphe][Gly(N(CH2)3NH2)][Nphe]-NH2) | 15.6 (≈ 11.4 µM) | 31.3 (≈ 22.9 µM) | 62.5 (≈ 45.8 µM) | >250 | >250 |  |  |  |  |  |
| CC(=O)N(CC(=O)N(CCCN)CC(=O)N(CC(=O)N(CCCN)CC(=O)N(CC(=O)N(CC(N)=O)Cc1ccccc1)Cc1ccccc1)Cc1ccccc1)Cc1ccccc1 [Compound 10, Ac(NpmNap)2Npm2] (Ac-[Nphe][Gly(N(CH2)3NH2)][Nphe][Gly(N(CH2)3NH2)][Nphe][Nphe]-NH2) | 31.3 (≈ 35.7 µM) | >500 | >500 | >250 | >250 |  |  |  |  |  |
| CC(=O)N(CC(=O)N(CCCN)CC(=O)N(CC(=O)N(CC(=O)N1CCC[C@H]1C(=O)N(CC(=O)N(CCCN)CC(=O)N(CC(=O)N(CC(=O)N1CCC[C@H]1C(N)=O)Cc1ccccc1)CC(C)C)C(C)C)Cc1ccccc1)CC(C)C)C(C)C [Compound 11, Ac(NipNapNibNpmPro)2] (Ac-[N(iPr)Gly][Gly(N(CH2)3NH2)][Nleu][Nphe]P[N(iPr)Gly][Gly(N(CH2)3NH2)][Nleu][Nphe]P-NH2) |  |  |  |  |  | >500 | >500 | >500 | >250 | >250 |
| CC(=O)N(CC(=O)N(CC(=O)N(CCCCNC(=N)N)CC(=O)N(CC(=O)N1CCC[C@H]1C(=O)N(CC(=O)N(CC(=O)N(CCCCNC(=N)N)CC(=O)N(CC(=O)N1CCC[C@H]1C(N)=O)C(C)C)CC(C)C)CC(c1ccccc1)c1ccccc1)C(C)C)CC(C)C)CC(c1ccccc1)c1ccccc1 [Compound 12, Ac(NdpNibNgbNipPro)2] (Ac-[X1][Nleu][NhArg][N(iPr)Gly]P[X1][Nleu][NhArg][N(iPr)Gly]P-NH2) | 500 (≈ 335 µM) | 250 (≈ 167 µM) | 500 (≈ 335 µM) | >250 | >250 |  |  |  |  |  |
| CC(=O)N(CC(=O)N(CC(=O)N(CCCN)CC(=O)N(CC(=O)N1CCCC1C(=O)N(CC(=O)N(CC(=O)N(CCCN)CC(=O)N(CC(=O)N1CCCC1C(N)=O)C(C)C)CC(C)C)Cc1ccccc1)C(C)C)CC(C)C)Cc1ccccc1 (centres unmarked) [Compound 13, Ac(NpmNibNapNipPro)2] (Ac-[Nphe][Nleu][Gly(N(CH2)3NH2)][N(iPr)Gly]P[Nphe][Nleu][Gly(N(CH2)3NH2)][N(iPr)Gly]P-NH2; configuration not given here) | >500 | >500 | >500 | >250 | >250 |  |  |  |  |  |
| CC(=O)N(CCCCN)CC(=O)N(CC(=O)N(CCCCN)CC(=O)N(CC(=O)N(CCCCN)CC(=O)N(CC(N)=O)Cc1ccccc1)Cc1ccccc1)Cc1ccccc1 [Compound 14, Ac(NabNpm)3] (Ac-[Nlys][Nphe][Nlys][Nphe][Nlys][Nphe]-NH2) | >500 | >500 | >500 | >250 | >250 |  |  |  |  |  |
| CC(C)CN1CC(=O)N(CCCN)CC(=O)N(C(C)C)CC(=O)N2CCC[C@H]2C(=O)N(Cc2ccccc2)CC(=O)N(CC(C)C)CC(=O)N(CCCN)CC(=O)N(C(C)C)CC(=O)N2CCC[C@H]2C(=O)N(Cc2ccccc2)CC1=O [Compound 29, C(NpmNibNapNipPro)2] (cyclo([Nleu][Gly(N(CH2)3NH2)][N(iPr)Gly]P[Nphe][Nleu][Gly(N(CH2)3NH2)][N(iPr)Gly]P[Nphe])) |  |  |  | >250 | >250 |  |  |  |  |  |
